# Measurements published in patent publication US11000033B2, “Ketone or oxime compound, and herbicide” (NISSAN CHEMICAL CORPORATION, priority 2014, dated 2021).
# How the values were obtained:
# Assay type in all cases: in vivo
# [1] = system: Monochoria vaginalis; test: Test Example 1: herbicidal activity, application before weed generation in submerged conditions (symbol C); details: application herbicide amount 320 g/ha
# Outline: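 Flooded alluvial soil (4 cm water) was mixed-sown with the three weed species, and 2.5-leaf rice seedlings were transplanted. On sowing day, a water-diluted emulsion at a predetermined rate was applied to the water surface. After 3 weeks in a 25–30 °C greenhouse, effect was scored 0–5.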
# [2] = system: Echinochloa crus-galli var. crus-galli; test: Test Example 3: herbicidal effect by foliage application, Wagner pot (symbol H); details: application herbicide amount 320 g/ha
# Outline: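 Herbicidal activity was rated three weeks after a foliar spray of diluted emulsion concentrate, applied at a predetermined dose to plants grown for 14 days from seed in waterlogged alluvial soil within a 25–30 °C greenhouse.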
# [3] = system: directly sowed rice plant; test: Test Example 3: effect on crop by foliage application, Wagner pot (symbol b); details: application herbicide amount 320 g/ha
# Outline: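 Alluvial soil in a 1/10000-are Wagner pot was flooded to a water depth of 0.1–0.5 cm. Echinochloa crus-galli var. crus-galli, Leptochloa chinensis, Cyperus difformis and rice were sown into it and grown in a greenhouse at 25–30 °C.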
# [4] = system: Alopecurus myosuroides; test: Test Example 4: herbicidal effect by soil treatment (symbol J); details: application herbicide amount 320 g/ha
# Outline: (§1)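 Seeds were sown in sterilized diluvial soil, covered with about 1.5 cm of soil, and the soil surface was sprayed with a water-diluted emulsion of the compound at a predetermined rate. Plants grew in a greenhouse at 25° C. to 30° C.; effects were scored visually 3 weeks after application.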
# [5] = system: Lolium multiflorum Lam.; test: Test Example 4: herbicidal effect by soil treatment (symbol K); details: application herbicide amount 320 g/ha
# Outline: as §1
# [6] = system: Apera spica-venti; test: Test Example 4: herbicidal effect by soil treatment (symbol L); details: application herbicide amount 320 g/ha
# Outline: as §1
# [7] = system: Amaranthus retroflexus; test: Test Example 4: herbicidal effect by soil treatment (symbol N); details: application herbicide amount 320 g/ha
# Outline: as §1
# [8] = system: corn; test: Test Example 4: effect on crop by soil treatment (symbol c); details: application herbicide amount 320 g/ha
# Outline: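 Seeds were sown in spots on sterilized diluvial soil in a plastic box and covered with about 1.5 cm of soil. Plants were then grown in a greenhouse at 25° C. to 30° C.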
# [9] = system: Setaria viridis; test: Test Example 5: herbicidal effect by foliage application, plastic box (symbol G); details: 320 g/ha, 3 weeks after application
# Outline: (§2)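 Seeds were sown in sterilized diluvial soil, covered with about 1.5 cm of soil and grown 14 days in a greenhouse at 25° C. to 30° C. An emulsifiable formulation diluted in water to a set rate was sprayed over foliage, and injury was scored 3 weeks later.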
# [10] = system: Echinochloa crus-galli var. crus-galli; test: Test Example 5: herbicidal effect by foliage application, plastic box (symbol H); details: 320 g/ha, 3 weeks after application
# Outline: as §2
# [11] = system: Abutilon theophrasti; test: Test Example 5: herbicidal effect by foliage application, plastic box (symbol M); details: 320 g/ha, 3 weeks after application
# Outline: as §2
# [12] = system: Chenopodium album; test: Test Example 5: herbicidal effect by foliage application, plastic box (symbol O); details: 320 g/ha, 3 weeks after application
# Outline: as §2
# [13] = system: soybean; test: Test Example 5: effect on crop by foliage application, plastic box (symbol d); details: 320 g/ha, 3 weeks after application
# Outline: (§3)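 Soil: sterilized diluvial. Container: plastic box, 21 × 13 cm, 7 cm deep. Sowing: spot-like, ~1.5 cm cover. Growth: greenhouse, 25° C. to 30° C.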
# [14] = system: wheat; test: Test Example 5: effect on crop by foliage application, plastic box (symbol e); details: 320 g/ha, 3 weeks after application
# Outline: as §3
# [15] = system: Veronica persica; test: Test Example 5: herbicidal effect by foliage application, plastic box (symbol R); details: 320 g/ha, 3 weeks after application
# Outline: as §2
SMILES,"Herbicidal effect grade, C: Monochoria vaginalis [1]","herbicidal effect on H (Echinochloa crus-galli var. crus-galli), grade 0-5 [2]","effect on crop b (directly sowed rice plant), grade 0-5 [3]",J (Alopecurus myosuroides) herbicidal effect grade [4],K (Lolium multiflorum Lam.) herbicidal effect grade [5],L (Apera spica-venti) herbicidal effect grade [6],N (Amaranthus retroflexus) herbicidal effect grade [7],c (corn) effect on crop grade [8],"G: Setaria viridis, herbicidal effect grade [9]","H: Echinochloa crus-galli var. crus-galli, herbicidal effect grade [10]","M: Abutilon theophrasti, herbicidal effect grade [11]","O: Chenopodium album, herbicidal effect grade [12]","d: soybean, effect on crop grade [13]","e: wheat, effect on crop grade [14]","R: Veronica persica, herbicidal effect grade [15]"
CC(CC1CC(O)=C(c2c(C)cc(C)cc2C)C1=O)=NOCC(F)(F)F (stereo not shown) [1-028],1 (Herbicidal ratio of 5% or higher and lower than 20%),5 (Herbicidal ratio of 90% or more (almost completely withered)),5 (Herbicidal ratio of 90% or more (almost completely withered)),5 (Herbicidal ratio of 90% or more (almost completely withered)),5 (Herbicidal ratio of 90% or more (almost completely withered)),5 (Herbicidal ratio of 90% or more (almost completely withered)),3 (Herbicidal ratio of 40% or higher and lower than 70%),0 (Herbicidal ratio of 5% or lower (almost no effect)),5 (Herbicidal ratio of 90% or more (almost completely withered)),5 (Herbicidal ratio of 90% or more (almost completely withered)),3 (Herbicidal ratio of 40% or higher and lower than 70%),3 (Herbicidal ratio of 40% or higher and lower than 70%),2 (Herbicidal ratio of 20% or higher and lower than 40%),3 (Herbicidal ratio of 40% or higher and lower than 70%),–
CON=C(C)C(C)C1CC(O)=C(c2c(C)cc(C)cc2C)C1=O (stereo not shown) [1-032],3 (Herbicidal ratio of 40% or higher and lower than 70%),5 (Herbicidal ratio of 90% or more (almost completely withered)),5 (Herbicidal ratio of 90% or more (almost completely withered)),5 (Herbicidal ratio of 90% or more (almost completely withered)),5 (Herbicidal ratio of 90% or more (almost completely withered)),5 (Herbicidal ratio of 90% or more (almost completely withered)),4 (Herbicidal ratio of 70% or higher and lower than 90%),4 (Herbicidal ratio of 70% or higher and lower than 90%),5 (Herbicidal ratio of 90% or more (almost completely withered)),5 (Herbicidal ratio of 90% or more (almost completely withered)),4 (Herbicidal ratio of 70% or higher and lower than 90%),3 (Herbicidal ratio of 40% or higher and lower than 70%),4 (Herbicidal ratio of 70% or higher and lower than 90%),5 (Herbicidal ratio of 90% or more (almost completely withered)),–
CON=C(C)CC1CC(OC(=O)C(C)(C)OC(C)=O)=C(c2c(C)cc(C)cc2C)C1=O (stereo not shown) [1-034],2 (Herbicidal ratio of 20% or higher and lower than 40%),5 (Herbicidal ratio of 90% or more (almost completely withered)),5 (Herbicidal ratio of 90% or more (almost completely withered)),5 (Herbicidal ratio of 90% or more (almost completely withered)),5 (Herbicidal ratio of 90% or more (almost completely withered)),5 (Herbicidal ratio of 90% or more (almost completely withered)),5 (Herbicidal ratio of 90% or more (almost completely withered)),4 (Herbicidal ratio of 70% or higher and lower than 90%),5 (Herbicidal ratio of 90% or more (almost completely withered)),5 (Herbicidal ratio of 90% or more (almost completely withered)),4 (Herbicidal ratio of 70% or higher and lower than 90%),5 (Herbicidal ratio of 90% or more (almost completely withered)),4 (Herbicidal ratio of 70% or higher and lower than 90%),5 (Herbicidal ratio of 90% or more (almost completely withered)),–
CON=C(C)CC1CC(OC(=O)C2(C)CC2(Cl)Cl)=C(c2c(C)cc(C)cc2C)C1=O (stereo not shown) [1-036],1 (Herbicidal ratio of 5% or higher and lower than 20%),5 (Herbicidal ratio of 90% or more (almost completely withered)),5 (Herbicidal ratio of 90% or more (almost completely withered)),5 (Herbicidal ratio of 90% or more (almost completely withered)),5 (Herbicidal ratio of 90% or more (almost completely withered)),5 (Herbicidal ratio of 90% or more (almost completely withered)),5 (Herbicidal ratio of 90% or more (almost completely withered)),3 (Herbicidal ratio of 40% or higher and lower than 70%),5 (Herbicidal ratio of 90% or more (almost completely withered)),5 (Herbicidal ratio of 90% or more (almost completely withered)),4 (Herbicidal ratio of 70% or higher and lower than 90%),2 (Herbicidal ratio of 20% or higher and lower than 40%),4 (Herbicidal ratio of 70% or higher and lower than 90%),5 (Herbicidal ratio of 90% or more (almost completely withered)),–
CON=C(C)CC1CC(OC(=O)COc2ccc(Cl)cc2)=C(c2c(C)cc(C)cc2C)C1=O (stereo not shown) [1-044],4 (Herbicidal ratio of 70% or higher and lower than 90%),5 (Herbicidal ratio of 90% or more (almost completely withered)),5 (Herbicidal ratio of 90% or more (almost completely withered)),5 (Herbicidal ratio of 90% or more (almost completely withered)),5 (Herbicidal ratio of 90% or more (almost completely withered)),5 (Herbicidal ratio of 90% or more (almost completely withered)),4 (Herbicidal ratio of 70% or higher and lower than 90%),4 (Herbicidal ratio of 70% or higher and lower than 90%),5 (Herbicidal ratio of 90% or more (almost completely withered)),5 (Herbicidal ratio of 90% or more (almost completely withered)),4 (Herbicidal ratio of 70% or higher and lower than 90%),–,4 (Herbicidal ratio of 70% or higher and lower than 90%),5 (Herbicidal ratio of 90% or more (almost completely withered)),0 (Herbicidal ratio of 5% or lower (almost no effect))
